{"source": "patent US6437138B1", "about": "“3-pyridyloxymethyl heterocyclic ether compounds useful in controlling chemical synaptic transmission” (priority 1996, dated 2002)", "key": {"[1]": {"molecular_target": "neuronal nicotinic cholinergic channel receptors (Rattus norvegicus, UniProt P09483+P12390)", "sequence (P09483 31-630)": "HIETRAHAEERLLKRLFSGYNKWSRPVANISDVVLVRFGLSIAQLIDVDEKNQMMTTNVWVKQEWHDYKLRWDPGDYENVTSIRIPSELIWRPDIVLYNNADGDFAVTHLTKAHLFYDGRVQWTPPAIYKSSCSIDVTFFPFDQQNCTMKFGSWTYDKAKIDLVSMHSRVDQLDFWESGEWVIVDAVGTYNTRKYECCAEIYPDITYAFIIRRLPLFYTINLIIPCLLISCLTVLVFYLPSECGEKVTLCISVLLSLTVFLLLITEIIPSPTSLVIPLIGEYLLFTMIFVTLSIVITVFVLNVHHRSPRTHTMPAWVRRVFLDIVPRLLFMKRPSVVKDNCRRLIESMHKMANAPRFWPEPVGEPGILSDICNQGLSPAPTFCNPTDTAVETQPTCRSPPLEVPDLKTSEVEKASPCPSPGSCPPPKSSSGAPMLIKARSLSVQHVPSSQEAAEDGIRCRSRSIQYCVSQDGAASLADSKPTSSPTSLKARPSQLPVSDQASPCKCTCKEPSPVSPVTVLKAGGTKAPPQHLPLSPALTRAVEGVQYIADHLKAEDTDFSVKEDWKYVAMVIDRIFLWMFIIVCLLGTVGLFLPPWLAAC", "sequence (P12390 25-500)": "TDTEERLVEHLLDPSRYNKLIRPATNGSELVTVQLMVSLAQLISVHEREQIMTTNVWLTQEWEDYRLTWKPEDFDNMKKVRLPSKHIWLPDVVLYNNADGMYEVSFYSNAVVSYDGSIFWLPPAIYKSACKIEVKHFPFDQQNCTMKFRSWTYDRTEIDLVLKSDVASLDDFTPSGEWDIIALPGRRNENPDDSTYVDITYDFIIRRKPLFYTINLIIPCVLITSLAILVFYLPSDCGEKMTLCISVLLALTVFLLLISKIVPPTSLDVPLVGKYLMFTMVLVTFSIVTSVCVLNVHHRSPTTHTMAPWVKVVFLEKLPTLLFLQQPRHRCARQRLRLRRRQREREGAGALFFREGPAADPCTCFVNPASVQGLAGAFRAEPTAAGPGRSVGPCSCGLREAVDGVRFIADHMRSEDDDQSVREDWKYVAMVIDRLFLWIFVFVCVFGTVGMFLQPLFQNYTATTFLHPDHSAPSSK", "conditions": "displacement of [3H]-cytisine (1.25 nM), whole rat brain membranes; Ki from IC50 by Cheng and Prusoff correction; read-out: Binding Ki", "description": "A. Protocol For Determination of Nicotinic Cholinergic Channel Receptor Binding Potencies of Ligands\nBinding of [^3H]-cytisine ([^3H]-CYT) to nicotinic receptors was accomplished using crude synaptic membrane preparations from whole rat brain (Pabreza et al., Molecular Pharmacol, 1990, 39:9). Washed membranes were stored at −80° C. prior to use. Frozen aliquots were slowly thawed and resuspended in 20 volumes of buffer (containing: 120 mM NaCl, 5 mM KCl, 2 mM MgCl2, 2 mM CaCl2 and 50 mM Tris-Cl, pH 7.4 @ 4° C.). After centrifuging at 20,000×g for 15 minutes, the pellets were resuspended in 30 volumes of buffer. Homogenate (containing 125-150 μg protein) was added to triplicate tubes containing concentrations of test compound and [^3H]-CYT (1.25 nM) in a final volume of 500 μL. Samples were incubated for 60 minutes at 4° C., then rapidly filtered through Whatman GF/B filters presoaked in 0.5% polyethyleneimine using 3×4 mL of ice-cold buffer. The filters are counted in 4 mL of Ecolume® (ICN). Nonspecific binding was determined in the presence of […] (−)-nicotine and values were expressed as a percentage of total binding."}, "[2]": {"molecular_target": "neuronal nicotinic cholinergic channels in IMR-32 cells (Homo sapiens, UniProt P30926+P32297)", "experiment": "86Rb+ efflux in IMR-32 cells (activation, or inhibition of efflux elicited by (S)-nicotine)", "assay_type": "cell-based", "conditions": "IMR-32, inhibition of the efflux elicited by 100 μM (S)-nicotine; for inhibition at 1 µM: single dose 1 μM; for inhibition at 10 µM: single dose 10 μM", "source_text": "For the purpose of directly evaluating the ability of test compounds to functionally activate or inhibit certain subtypes of neuronal nicotinic cholinergic channels, an assay to determine ^86Rb^+Efflux in IMR-32 cells was employed (Protocol B below).\nB. Protocols for the Determination of Functional Effects of Cholinerzic Channel Receptor Ligands on Synaptic Transmission\nCells of the IMR-32 human neuroblastoma clonal cell line (ATCC, Rockville, Md.) were maintained in a log phase of growth according to established procedures (Lukas, 1993). Experimental cells were seeded at a density of 500,000 cells/ml into a 24-well tissue culture dish. Plated cells were allowed to proliferate for at least 48 hours before loading with 2 μCi/ml of ^86Rb^+ (35 Ci/mmol) overnight at 37° C. The ^86Rb^+ efflux assays were performed according to previously published protocols (Lukas, R. J., J. Pharmacol. Exp. Ther., 265: 294-302, 1993) except serum-free Dulbecco's Modified Eagle's Medium was used during the ^86Rb^+ loading, rinsing, and agonist-induced efflux steps.\nEC50 data and maximal responses (reported as percent relative to the response elicited by 100 μM (S)-nicotine) are shown for selected compounds of the invention. The inhibition data (given for a larger number of compounds) reflect inhibition of the efflux elicited by 100 μM (S)-nicotine for either a single dose (% inhibition at 1 μM or at 10 μM) or over a range of doses (IC50 of inhibition). […] This finding is in agreement with the results of others who have linked dopamine release, which is dependent upon the ion flux in synaptic transmission, to binding at nicotinic receptors (cf., for example, Lippiello and Caldwell, U.S. Pat. No. 5,242,935, issued Sep. 7, 1993; Caldwell and Lippiello, U.S. Pat. No. 5,248,690, issued Sep. 28, 1993; and Wonnacott et al., Prog. Brain Res., 79: 157-163 (1989))."}}, "data": [{"smiles": "CN1CCC[C@H]1COc1cncc(-c2cc3ccccc3n2C)c1.Cl", "note": "[Example 36, 5-(1-Methyl-2-indolyl)-3-(1-methyl-2-(S)-pyrrolidinylmethoxy)pyridine Hydrochloride]", "values": [{"measurement": "Ki", "setting": "[1]", "result": 0.32, "unit": "nM"}, {"measurement": "melting point", "result": "195 to 197", "unit": "°C"}, {"measurement": "inhibition at 1 µM", "setting": "[2]", "result": 28, "unit": "%"}]}, {"smiles": "CN1CCC[C@H]1COc1cncc(-c2ccc(Cl)cc2)c1.Cl.Cl", "note": "[Example 38, 5-(4-Chlorophenyl)-3-(1-methyl-2-(S)-pyrrolidinylmethoxy)pyridine Dihydrochloride]", "values": [{"measurement": "Ki", "setting": "[1]", "result": 0.082, "unit": "nM"}, {"measurement": "melting point", "result": "224 to 226", "unit": "°C"}, {"measurement": "inhibition at 1 µM", "setting": "[2]", "result": 29, "unit": "%"}, {"measurement": "inhibition at 10 µM", "setting": "[2]", "result": 100, "unit": "%"}]}, {"smiles": "CN1CCC[C@H]1COc1cncc(-c2ccc(Cl)cc2Cl)c1.Cl.Cl", "note": "[Example 39, 5-(2,4-Dichlorophenyl)-3-(1-methyl-2-(S)-pyrrolidinylmethoxy)pyridine Dihydrochloride]", "values": [{"measurement": "Ki", "setting": "[1]", "result": 0.16, "unit": "nM"}, {"measurement": "melting point", "result": "176 to 178", "unit": "°C"}, {"measurement": "inhibition at 1 µM", "setting": "[2]", "result": 52, "unit": "%"}]}, {"smiles": "CN1CCC[C@H]1COc1cncc(C#Cc2ccccc2)c1.Cl.Cl", "note": "[Example 40, 5-(2-Phenylethynyl)-3-(1-methyl-2-(S)-pyrrolidinylmethoxy)pyridine Dihydrochloride]", "values": [{"measurement": "Ki", "setting": "[1]", "result": 0.16, "unit": "nM"}, {"measurement": "melting point", "result": "190 to 192", "unit": "°C"}, {"measurement": "inhibition at 1 µM", "setting": "[2]", "result": 30, "unit": "%"}, {"measurement": "inhibition at 10 µM", "setting": "[2]", "result": 100, "unit": "%"}]}, {"smiles": "Cc1ccc(-c2cncc(OC[C@@H]3CCCN3C)c2)cc1.Cl.Cl", "note": "[Example 41, 5-(4-Methylphenyl)-3-(1-methyl-2-(S)-pyrrolidinylmethoxy)pyridine Dihydrochloride]", "values": [{"measurement": "Ki", "setting": "[1]", "result": 0.13, "unit": "nM"}, {"measurement": "melting point", "result": "204 to 206", "unit": "°C"}, {"measurement": "inhibition at 1 µM", "setting": "[2]", "result": 41, "unit": "%"}, {"measurement": "inhibition at 10 µM", "setting": "[2]", "result": 100, "unit": "%"}]}, {"smiles": "CN1CCC[C@H]1COc1cncc(-c2cccc(N)c2)c1.Cl.Cl", "note": "[Example 43, 5-(3-Aminophenyl)-3-(1-methyl-2-(S)-pyrrolidinylmethoxy)pyridine Dihydrochloride]", "values": [{"measurement": "Ki", "setting": "[1]", "result": 0.43, "unit": "nM"}, {"measurement": "melting point", "result": "80 to 82", "unit": "°C"}, {"measurement": "inhibition at 1 µM", "setting": "[2]", "result": 36, "unit": "%"}]}]}
